Here are results for 1 molecule from patent US20220274997A1, “PIM KINASE INHIBITOR COMPOSITIONS AND USES THEREOF” (Snap Bio, Inc., priority 2019, published 2022).

This test has as its system HepaRG. In words: CellTiter-Glo cancer cell growth inhibition, HepaRG. Format: cell-based. The note with it: Homo sapiens, 72 h. The source says:
The CellTiter-Glo® Luminescent Cell Viability Assay is a sensitive homogeneous method to determine the number of viable cells in culture, Detection is based on using the luciferase reaction to measure the amount of ATP from viable cells. The amount of ATP in cells correlates with cell viability. Within minutes after a loss of membrane integrity, cells lose the ability to synthesize ATP, and endogenous ATPases destroy any remaining ATP; thus the levels of ATP fall precipitously. The CellTiter-Glo® Reagent does three things upon addition to cells. It lyses cell membranes to release ATP; it inhibits endogenous ATPases, and it provides luciferin, luciferase and other reagents necessary to measure ATP using a bioluminescent reaction. The unique properties of a proprietary stable luciferase.
All assays were performed by Reaction Biology Corporation (Malvern, Pa.) or ChemDiv, Inc. (San Diego, Calif.). All cell lines were purchased from American Type Culture Collection (ATCC, Manassas, Va.), except Huh 7 (RIKEN, Toyo, Japan) and HepaRG (Life Technologies, Carlsbad, Calif.).
Stock solutions ([…]) were diluted with cell culture media to produce 500× serial dilutions and […] of final compound dilutions were added to cells in assay plates to screen a series of 10 doses starting at […]. Final DMSO concentration was 0.2%. Assay plates are centrifuged at 100 rpm, 1 minute and kept at 37° C., 5% CO2, humidified atmosphere. […] Luminescence intensity was measured for each well using the Tecan M 1000 microplate reader after 5 min of incubation with CellTiter-Glo Reagent. The number of viable cells in culture was determined based on quantitation of the ATP present in each culture well. […] The EC50 curves were plotted and […] values were calculated using the GraphPad Prism 4 program based on a sigmoidal dose-response equation.

Molecule `O=C1NC(=O)c2c1c1c3ccccc3[nH]c1c1c2c2cc(F)c(O)cc2n1CCN1CCOCC1` [Compound 19, 3-fluoro-2-hydroxy-13-(2-morpholin-4-ylethyl)-12,13-dihydro-5H-indolo[2,3-a]pyrrolo[3,4-c]carbazole-5,7(6H)-dione] showed an EC50 of 48 nM.

For orientation: EC50 means the concentration needed to bring the measured effect to its halfway point. A high value points to weaker potency.
